Laboratory results taken from patent US20260022246A1, “COLORING AGENT COMPOSITION, FILM, OPTICAL FILTER, AND NEAR INFRARED ABSORBING COMPOUND” (FUJIFILM Corporation, priority 2023, published 2026).

Tests used:
Type in all cases: physicochemical
[1] = Evaluation of absorption spectrum (maximal absorption wavelength in chloroform solution); conditions: for λmax (maximal absorption wavelength): chloroform solution, 3.0×10^−5 mol/L, 1 mm quartz cell; for Near infrared absorbing property: grade of λmax in chloroform solution
Method: The specific compound is diluted with chloroform to a concentration of […], and an absorbance of the obtained sample solution is measured with a spectrophotometer (UV-3600 Plus, manufactured by Shimadzu Corporation) using a 1 mm quartz cell. A maximal absorption wavelength (Amax) is measured from an absorption spectrum of the sample solution.
For each of Exemplary Compounds shown in Tables 1 and 2, a sample solution was prepared by diluting the compound with chloroform to a concentration of 3.0×10^−5 mol/L, and near infrared absorbability was evaluated.
For each sample solution, an absorbance was measured in a 1 mm quartz cell using a spectrophotometer (UV-3600 Plus, manufactured by Shimadzu Corporation).
A maximal absorption wavelength (Amax) was measured from the absorption spectrum of each sample solution. The results are shown in Tables 1 and 2, and the wavelength of Amax was evaluated according to the following standard.
• A: Amax was 1,150 nm or more. • B: Amax was less than 1,150 nm.

[2] = Evaluation of solubility in methyl ethyl ketone (MEK); design: key to Solubility in solvent: A: 1 g or more of the compound was stably dissolved in 300 g of MEK; B: 1 g was not dissolved in 300 g of MEK; X: decomposition was observed by measuring the absorption spectrum after the dissolution; conditions: for Solubility in solvent: stirred at room temperature for 30 minutes
Method: For each of Exemplary Compounds shown in Tables 1 and 2, a predetermined amount of the compound was added to a solvent of methyl ethyl ketone (MEK), and solubility was evaluated according to the following standard by stirring the mixture at room temperature for 30 minutes.
• A: 1 g or more of the compound was stably dissolved in 300 g of MEK. • B: 1 g was not dissolved in 300 g of MEK. • X: decomposition was observed by measuring the absorption spectrum after the dissolution.

[3] = Evaluation of heat stability of polystyrene resin film (hot plate 180° C., 5 minutes); design: key to Heat stability of resin composition: absorbance reduction rate of Amax was less than 5%; B: absorbance reduction rate of Amax was 5% or more and less than 10%; C: absorbance reduction rate of Amax was 10% or more and less than 50%; D: absorbance reduction rate of Amax was 50% or more; X: solubility was insufficient, so that the film cannot be produced, which was not evaluable; conditions: polystyrene resin film on glass, hot plate 180° C. for 5 minutes, absorbance reduction rate at λmax
Method: 30 mg of each of Exemplary Compounds and the comparative compounds described in the tables was dissolved in 8.9 g of methyl ethyl ketone and 1.1 g of a polystyrene resin (manufactured by Sigma-Aldrich Co. LLC) to prepare a resin composition.
The obtained resin composition was spin-coated on a glass substrate to form a coating film, and the obtained coating film was dried at 60° C. for 2 minutes to produce a resin film. […]
• A: absorbance reduction rate of Amax was less than 5%. • B: absorbance reduction rate of Amax was 5% or more and less than 10%. • C: absorbance reduction rate of Amax was 10% or more and less than 50%. • D: absorbance reduction rate of Amax was 50% or more. • X: solubility was insufficient, so that the film cannot be produced, which was not evaluable.

[4] = Evaluation of kneading: transmittance at 1,150 nm of melt-kneaded resin film; conditions: kneaded with resin under the thermal conditions
Method: A resin composition, which was a kneaded material of the specific compound or the comparative compound and a resin, was prepared, and the following kneading evaluation was performed.
The specific compounds and comparative compounds shown in Table 3 below were weighed in the contents shown in Table 3, and a sample obtained by shaking and mixing 12.0 g of the resin shown in Table 3 was prepared. A polycarbonate resin (indicated as Polycarbonate in Table 3), a polystyrene resin, and an acrylic resin were used as the resin. In Table 3, the polycarbonate resin is indicated as Polycarbonate, the polystyrene resin is indicated as Polystyrene, and the acrylic resin is indicated as Acrylic.
The obtained sample was put into a supply port of a biaxial kneader (Labo Plastomill, manufactured by Toyo Seiki Seisaku-sho, Ltd.) and subjected to melt-kneading to obtain a resin composition as a kneaded material. The obtained resin composition was pressed using a heat press machine to obtain a resin film having a thickness of 0.15 mm.
In a case where a polycarbonate resin (SD PORYCA (registered trademark) 301-10, manufactured by Sumika Polycarbonate Co., Ltd.) was used as the resin, the melt-kneading temperature was set to 260° C. and the hot press temperature was set to 230° C.
In a case where a polystyrene resin (manufactured by Sigma-Aldrich Co. LLC) was used as the resin, the melt-kneading temperature was set to 200° C. and the hot press temperature was set to 180° C.
In a case where an acrylic resin (G1000, manufactured by Kuraray Co., Ltd.) was used as the resin, the melt-kneading temperature was set to 180° C. and the hot press temperature was set to 160° C.
A transmittance of the obtained resin film at a wavelength of 1,150 nm was measured with a spectrophotometer, and the measured value was evaluated according to the following standard. In Table 3, it is described in “Evaluation of transmittance at wavelength of 1150 nm”. As the transmittance is lower, the near infrared blocking property is better. […]

Row | SMILES | λmax (maximal absorption wavelength) [1] | Near infrared absorbing property [1] | Solubility in solvent [2] | Heat stability of resin composition [3] | solubility in a solvent (in words) [2] | stability after dissolving in a solvent (measurement of the absorption spectrum) [2] | heat stability (in words, kneading evaluation) [4]
1 | N#Cc1ccc(N(c2ccc([N+](=C3C=CC(=[N+](c4ccc(N(c5ccc(C#N)c(F)c5)c5ccc(C#N)c(F)c5)cc4)c4ccc(N(c5ccc(C#N)c(F)c5)c5ccc(C#N)c(F)c5)cc4)C=C3)c3ccc(N(c4ccc(C#N)c(F)c4)c4ccc(C#N)c(F)c4)cc3)cc2)c2ccc(C#N)c(F)c2)cc1F [A-19] | 1165 nm | A (Amax was 1,150 nm or more) | A (1 g or more of the compound was stably dissolved in 300 g of MEK) | A (absorbance reduction rate of Amax was less than 5%) |  |  | 
2 | COc1cc(C)c(N(c2ccc([N+](=C3C=CC(=[N+](c4ccc(N(c5c(C)cc(OC)cc5C)c5c(C)cc(OC)cc5C)cc4)c4ccc(N(c5c(C)cc(OC)cc5C)c5c(C)cc(OC)cc5C)cc4)C=C3)c3ccc(N(c4c(C)cc(OC)cc4C)c4c(C)cc(OC)cc4C)cc3)cc2)c2c(C)cc(OC)cc2C)c(C)c1.[O-][Cl+3]([O-])([O-])[O-].[O-][Cl+3]([O-])([O-])[O-] [A-22] | 1308 nm | A (Amax was 1,150 nm or more) | A (1 g or more of the compound was stably dissolved in 300 g of MEK) | A (absorbance reduction rate of Amax was less than 5%) |  |  | 
3 | COC(=O)c1cccc(N(c2ccc([N+](=C3C=CC(=[N+](c4ccc(N(c5cccc(C(=O)OC)c5)c5cccc(C(=O)OC)c5)cc4)c4ccc(N(c5cccc(C(=O)OC)c5)c5cccc(C(=O)OC)c5)cc4)C=C3)c3ccc(N(c4cccc(C(=O)OC)c4)c4cccc(C(=O)OC)c4)cc3)cc2)c2cccc(C(=O)OC)c2)c1.[O-][Cl+3]([O-])([O-])[O-].[O-][Cl+3]([O-])([O-])[O-] [A-26] | 1232 nm | A (Amax was 1,150 nm or more) | A (1 g or more of the compound was stably dissolved in 300 g of MEK) | A (absorbance reduction rate of Amax was less than 5%) |  |  | 
4 | Cc1ccc(N(c2ccc(C)cc2)c2ccc([N+](=C3C=CC(=[N+](c4ccc(N(c5ccc(C)cc5)c5ccc(C)cc5)cc4)c4ccc(N(c5ccc(C)cc5)c5ccc(C)cc5)cc4)C=C3)c3ccc(N(c4ccc(C)cc4)c4ccc(C)cc4)cc3)cc2)cc1 [A-28] | 1209 nm | A (Amax was 1,150 nm or more) | A (1 g or more of the compound was stably dissolved in 300 g of MEK) | A (absorbance reduction rate of Amax was less than 5%) |  |  | 
5 | Cc1ccc(N(c2ccc(C)cc2)c2ccc([N+](=C3C=CC(=[N+](c4ccc(N(c5ccc(C)cc5)c5ccc(C)cc5)cc4)c4ccc(N(c5ccc(C)cc5)c5ccc(C)cc5)cc4)C=C3)c3ccc(N(c4ccc(C)cc4)c4ccc(C)cc4)cc3)cc2)cc1.F[B-](F)(F)F.F[B-](F)(F)F [A-29] | 1209 nm | A (Amax was 1,150 nm or more) | A (1 g or more of the compound was stably dissolved in 300 g of MEK) | A (absorbance reduction rate of Amax was less than 5%) |  |  | 
6 | Cc1ccc(N(c2ccc(C)cc2)c2ccc([N+](=C3C=CC(=[N+](c4ccc(N(c5ccc(C)cc5)c5ccc(C)cc5)cc4)c4ccc(N(c5ccc(C)cc5)c5ccc(C)cc5)cc4)C=C3)c3ccc(N(c4ccc(C)cc4)c4ccc(C)cc4)cc3)cc2)cc1.F[P-](F)(F)(F)(F)F.F[P-](F)(F)(F)(F)F [A-30] | 1209 nm | A (Amax was 1,150 nm or more) | A (1 g or more of the compound was stably dissolved in 300 g of MEK) | A (absorbance reduction rate of Amax was less than 5%) |  |  | 
7 | Cc1ccc(N(c2ccc(C)cc2)c2ccc([N+](=C3C=CC(=[N+](c4ccc(N(c5ccc(C)cc5)c5ccc(C)cc5)cc4)c4ccc(N(c5ccc(C)cc5)c5ccc(C)cc5)cc4)C=C3)c3ccc(N(c4ccc(C)cc4)c4ccc(C)cc4)cc3)cc2)cc1.O=S(=O)([C-](S(=O)(=O)C(F)(F)F)S(=O)(=O)C(F)(F)F)C(F)(F)F.O=S(=O)([C-](S(=O)(=O)C(F)(F)F)S(=O)(=O)C(F)(F)F)C(F)(F)F [A-34] | 1211 nm | A (Amax was 1,150 nm or more) | A (1 g or more of the compound was stably dissolved in 300 g of MEK) | A (absorbance reduction rate of Amax was less than 5%) |  |  | 
8 | Cc1ccc(N(c2ccc(C)cc2)c2ccc([N+](=C3C=CC(=[N+](c4ccc(N(c5ccc(C)cc5)c5ccc(C)cc5)cc4)c4ccc(N(c5ccc(C)cc5)c5ccc(C)cc5)cc4)C=C3)c3ccc(N(c4ccc(C)cc4)c4ccc(C)cc4)cc3)cc2)cc1 [A-35] |  | A (Amax was 1,150 nm or more) | A (1 g or more of the compound was stably dissolved in 300 g of MEK) | A (absorbance reduction rate of Amax was less than 5%) |  |  | 
9 | Cc1ccc(N(c2ccc(C)cc2)c2ccc([N+](=C3C=CC(=[N+](c4ccc(N(c5ccc(C)cc5)c5ccc(C)cc5)cc4)c4ccc(N(c5ccc(C)cc5)c5ccc(C)cc5)cc4)C=C3)c3ccc(N(c4ccc(C)cc4)c4ccc(C)cc4)cc3)cc2)cc1.c1ccc([B-](c2ccccc2)(c2ccccc2)c2ccccc2)cc1.c1ccc([B-](c2ccccc2)(c2ccccc2)c2ccccc2)cc1 [A-36] | 1215 nm | A (Amax was 1,150 nm or more) | A (1 g or more of the compound was stably dissolved in 300 g of MEK) | A (absorbance reduction rate of Amax was less than 5%) |  |  | 
10 | C1=CC(=[N+](c2ccc(N(c3ccccc3)c3ccccc3)cc2)c2ccc(N(c3ccccc3)c3ccccc3)cc2)C=CC1=[N+](c1ccc(N(c2ccccc2)c2ccccc2)cc1)c1ccc(N(c2ccccc2)c2ccccc2)cc1 [Comparative compound 1, reference compound] | 1230 nm | A (Amax was 1,150 nm or more) | B (1 g was not dissolved in 300 g of MEK) | X | inferior |  | 
11 | Cc1ccc(N(c2ccc(C)cc2)c2ccc([N+](=C3C=CC(=[N+](c4ccc(N(c5ccc(C)cc5)c5ccc(C)cc5)cc4)c4ccc(N(c5ccc(C)cc5)c5ccc(C)cc5)cc4)C=C3)c3ccc(N(c4ccc(C)cc4)c4ccc(C)cc4)cc3)cc2)cc1 [Comparative compound 2, reference compound] | 1250 nm | A (Amax was 1,150 nm or more) | X | D (absorbance reduction rate of Amax was 50% or more) |  | decomposed | low
